Converted amounts (≈) assume the structure as drawn. “And” between values parts separate entries of the source, which are not always exact repeats. Identical values can stand only once. Like-named read-outs stand apart in the source and are kept apart here.
Legend:
[1] = preliminary results, Yarchoan et al. 1986; cited from earlier work
[2] = tested on: Mouse ecotropic (Cas-Br-M); assay: Median effective antiviral concentration against mouse ecotropic virus (Table 5); assay type: cell-based, murine retrovirus; settings: unidentified retrovirus
From the text: (§1) A comparison of the differences in median effective an tiviral concentrations between human, non-human primate, and murine retroviruses is shown in Table 5. […] A further comparison of the activity of several nucleoside analogues, including CS-87, against HIV-1 and SIV in human PBM cells is shown in FIG. 6. The effect of delayed treatment with AZT, CS-87 or CS-91 on the replication of HIV-1 and SIV in human PBM cells is shown in FIGS. 7a, b, and c.

[3] = tested on: HIV-1 (Strain HTLV-III); assay: Antiviral activity against HIV-1 in ATH-8 cells (Table 4); settings: Human immunodeficiency virus 1, 240 h, read-out: ATH-8 (MIC)
[4] = tested on: HIV-1 p24; assay: Inhibition of HIV replication in human PBM cells, p24 RIA (Table 3)
[5] = tested on: HIV; settings: in vitro
[6] = tested on: NIH Swiss mice; settings: oral 0.5 mg/ml ad libitum, 67 days
[7] = tested on: HIV p24 and p41; assay: Inhibition of HIV replication in human PBM cells, western blot analysis (Table 3)
[8] = tested on: uninfected cells; settings: CS-87 compared with AZT
[9] = tested on: HIV-1; assay: microbe, parasite or virus in culture; settings: Human immunodeficiency virus 1, PBMC, read-out: PBM (EC50)
[10] = tested on: HIV (LAV-1); assay: Median effective antiviral concentration against HIV (Table 5); assay type: cell-based; settings: Human immunodeficiency virus 1
[11] = tested on: Friend (EY-10); assay: Median effective antiviral concentration against Friend virus (Table 5); assay type: cell-based, murine retrovirus; settings: unidentified retrovirus, in Mus musculus
From the text: as §1

[12] = tested on: Friend Leukemia virus; settings: Ostertag et al.; Krieg et al.; cited from earlier work
[13] = tested on: HIV-1 (strain LAV); assay: Inhibition of HIV replication in human PBM cells, reverse transcriptase assay (Table 3)
[14] = tested on: HIV-1 and SIV; assay: Effect of delayed treatment on replication of HIV-1 and SIV in human PBM cells (FIG. 7); assay type: cell-based, HIV-1; SIV
From the text: as §1

[15] = tested on: SIV (SMM); assay: Median effective antiviral concentration against SIV (Table 5); assay type: cell-based, simian immunodeficiency virus; settings: Simian immunodeficiency virus
From the text: as §1

[16] = tested on: HIV-1 (Strain RF-II); assay: Antiviral activity against HIV-1 in HeLa-T4 cells (Table 4); assay type: cell-based; settings: Human immunodeficiency virus 1, HeLaT4, HIV-1
Method: Evaluation in Hela-T4 cells infected with HIV-1 (Strain RF-II)
HeLa-T4 cells (described in Cell 47: 333, 1986) are maintained in Dulbecco's Modified Eagle medium containing 10% inactivated fetal calf serum, penicillin (100 U/ml) and streptomycin (100 μg/ml), and the antibiotic G418 (1 mg/ml). The cells are seeded onto a 96-well plate (2×10^4 cells/well per 0.1 ml), and two days later, the supernatant is removed and the virus added. After adsorption for 45 minutes, the inoculum is removed and the cells washed with phosphate-buffered saline (pH 7.2). The compounds at different concentration are then added in maintenance medium (containing 2% serum). […] The cells are fixed with a mixture of 5% glacial acetic acid/95% Ethanol for 15 minutes, and then stained with Giemsa (20% in PSB) for 4 hours. The plates are then washed and dried. The foci are then enumerated with a dissecting stereomicroscope.

[17] = molecular target: T1, Host cell α-DNA pol (Homo sapiens, UniProt P09884); assay: Effect of 5'-triphosphates on alpha DNA polymerase (Table 6); assay type: biochemical; settings: K1 host cell α-DNA pol / K1 HIV RT
T1 sequence (P09884 1-1462): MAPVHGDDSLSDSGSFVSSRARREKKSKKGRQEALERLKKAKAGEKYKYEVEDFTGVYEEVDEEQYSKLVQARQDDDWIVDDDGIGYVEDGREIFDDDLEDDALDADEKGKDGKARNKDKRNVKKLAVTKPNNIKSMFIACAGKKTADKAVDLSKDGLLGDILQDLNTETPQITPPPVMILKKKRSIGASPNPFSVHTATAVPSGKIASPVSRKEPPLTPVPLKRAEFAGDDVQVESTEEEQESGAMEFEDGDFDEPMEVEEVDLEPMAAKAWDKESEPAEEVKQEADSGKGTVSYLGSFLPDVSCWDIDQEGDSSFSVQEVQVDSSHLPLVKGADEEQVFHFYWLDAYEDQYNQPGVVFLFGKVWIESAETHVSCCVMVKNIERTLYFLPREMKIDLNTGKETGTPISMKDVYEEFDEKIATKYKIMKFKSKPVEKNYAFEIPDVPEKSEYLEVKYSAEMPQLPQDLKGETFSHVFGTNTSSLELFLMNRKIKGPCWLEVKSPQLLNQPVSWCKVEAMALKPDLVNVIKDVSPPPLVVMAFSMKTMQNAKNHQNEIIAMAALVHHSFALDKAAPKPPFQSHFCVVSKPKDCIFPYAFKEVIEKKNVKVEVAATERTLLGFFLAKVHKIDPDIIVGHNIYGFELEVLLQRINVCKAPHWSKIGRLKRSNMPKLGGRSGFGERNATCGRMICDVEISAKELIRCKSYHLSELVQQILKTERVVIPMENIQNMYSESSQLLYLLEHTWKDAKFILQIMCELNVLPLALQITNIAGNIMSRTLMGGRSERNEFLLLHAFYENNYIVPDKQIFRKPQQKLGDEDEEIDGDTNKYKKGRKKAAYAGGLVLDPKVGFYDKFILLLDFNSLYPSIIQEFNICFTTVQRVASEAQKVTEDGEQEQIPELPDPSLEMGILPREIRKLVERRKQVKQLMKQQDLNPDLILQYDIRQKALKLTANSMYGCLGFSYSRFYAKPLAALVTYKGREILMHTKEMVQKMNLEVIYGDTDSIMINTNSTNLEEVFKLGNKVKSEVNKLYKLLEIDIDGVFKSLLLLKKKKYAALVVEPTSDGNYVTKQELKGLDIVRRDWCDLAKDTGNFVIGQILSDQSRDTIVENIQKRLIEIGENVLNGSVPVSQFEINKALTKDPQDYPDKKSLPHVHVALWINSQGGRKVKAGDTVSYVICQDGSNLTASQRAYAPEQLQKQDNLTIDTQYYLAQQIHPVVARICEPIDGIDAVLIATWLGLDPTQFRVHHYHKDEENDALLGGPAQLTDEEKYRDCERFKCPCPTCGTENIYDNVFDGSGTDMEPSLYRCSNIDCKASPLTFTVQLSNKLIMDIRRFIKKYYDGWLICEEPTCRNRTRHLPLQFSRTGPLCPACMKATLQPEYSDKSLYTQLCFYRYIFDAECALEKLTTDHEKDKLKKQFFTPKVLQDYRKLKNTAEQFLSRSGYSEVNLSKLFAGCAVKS

[18] = molecular target: T2, HIV RT (Human immunodeficiency virus type 1 group M subtype B, UniProt P03367); settings: 5'-triphosphate; according to Furman et al.; read-out: HIV RT K1; cited from earlier work
T2 construct: HIV reverse transcriptase

[19] = molecular target: T1, Host cell α-DNA pol; settings: 5'-triphosphate; according to Furman et al.; read-out: Host cell α-DNA pol K1; cited from earlier work
[20] = Effect on weight of uninfected BALB/c mice (FIG. 3); assay type: in vivo, mouse; settings: compared with each other and control
[21] = Human immunodeficiency virus 1, PBMC, in Homo sapiens, read-out: RIA p24 % Inhibition
[22] = individual mouse, listed as AzT
[23] = individual mouse, listed as Azt
[24] = Human immunodeficiency virus 1, PBMC, in Homo sapiens, read-out: RT % Inhibition (corrected)

Q: What does the source list for `Cc1cn([C@H]2C[C@H](N=[N+]=[N-])[C@@H](CO)O2)c(=O)[nH]c1=O` [AZT, 3'-azido-3'-deoxythymidine, reference compound]?
A: toxicity in a clinical setting [1]: exhibits toxicity; EC50 [2]: 7 nM; MIC [3]: 0.32 µM (≈ 0.0855 µg/mL); RIA p24 (Dupont kit) ([4]; 0.01 μM): 4.39 ng/mL; RIA p24 (Dupont kit) ([4]; 0.1 μM): 0.51 ng/mL; RIA p24 (Dupont kit) ([4]; 1 μM): 0.18 ng/mL; inhibition at 0.01 µM [4, 21]: 81.8%; inhibition at 0.1 µM [4, 21]: 97.9%; inhibition at 1 µM [4, 21]: 99.3%; activity against HIV, in words [5]: somewhat more active than CS-87; Hct ([6]; Mean of group): 28.7%; Hgb ([6]; Mean of group): 9.2 g/dL; MCH ([6]; Mean of group): 21.4 pg; MCHC ([6]; Mean of group): 32.0 g/dL; MCV ([6]; Mean of group): 66.8 fL; PLT ([6]; Mean of group): 1.2 × 10^6; RBC ([6]; Mean of group): 4.3 × 10^6; RDW ([6]; Mean of group): 23.4%; WBC ([6]; Mean of group): 6.6 × 10^3; Hct [6, 22]: 28.4% and 35.0%; Hgb [6, 22]: 9.1 g/dL and 11.0 g/dL; MCH [6, 22]: 22.1 pg and 21.2 pg; MCHC [6, 22]: 32.1 g/dL and 31.4 g/dL; MCV [6, 22]: 68.9 fL and 67.4 fL; PLT [6, 22]: 1.076 × 10^6 and 1.292 × 10^6; RBC [6, 22]: 4.1 × 10^6 and 5.2 × 10^6; RDW [6, 22]: 29.9% and 17.8%; WBC [6, 22]: 4.5 × 10^3 and 8.8 × 10^3; Hct [6, 23]: 21.1% and 30.1%; Hgb [6, 23]: 6.9 g/dL and 9.6 g/dL; MCH [6, 23]: 20.5 pg and 21.6 pg; MCHC [6, 23]: 32.6 g/dL and 31.9 g/dL; MCV [6, 23]: 62.9 fL and 67.8 fL; PLT [6, 23]: 1.187 × 10^6 and 1.112 × 10^6; RBC [6, 23]: 3.4 × 10^6 and 4.4 × 10^6; RDW [6, 23]: 24.6% and 21.3%; WBC [6, 23]: 5.2 × 10^3 and 7.9 × 10^3; Western blot p24 (band intensity) ([7]; 0.01 μM): 2+; Western blot p41 (band intensity) ([7]; 0.01 μM): 1+; Western blot p24 (band intensity) ([7]; 0.1 μM): 0; Western blot p41 (band intensity) ([7]; 0.1 μM): 0; Western blot p24 (band intensity) ([7]; 1 μM): 0; Western blot p41 (band intensity) ([7]; 1 μM): 0; cytotoxicity / toxicity in words [8]: much greater toxicity; EC50 [9]: 2 nM; EC50 [10]: 2 nM; EC50 [11]: 4 nM; activity against Friend Leukemia virus [12]: activity against Friend Leukemia virus; RT: Mean DPM/ml on day 5 (3 day old cells) ([13]; 0.01 μM): 65,208 DPM/ml; RT: Mean DPM/ml on day 5 (3 day old cells) ([13]; 0.1 μM): 6,144 DPM/ml; RT: Mean DPM/ml on day 5 (3 day old cells) ([13]; 1 μM): 2,304 DPM/ml; inhibition at 0.01 µM [13, 24]: 89.8%; inhibition at 0.1 µM [13, 24]: 99.1%; inhibition at 1 µM [13, 24]: 99.7%; effect of delayed treatment on replication of HIV-1 and SIV [14]: time of administration is critical to the effectiveness of the treatment; EC50 [15]: 2 nM; EC50 [16]: 340 nM

Q: With `Cc1cn([C@H]2C[C@H](N=[N+]=[N-])[C@@H](CO[P@](=O)(O)O[P@](=O)(O)OP(=O)(O)O)O2)c(=O)[nH]c1=O` [AZT-TP] as the compound, how does the “Ratio: Cellular/HIV” value [17] read?
A: 5,750

Q: And the Ki [18]?
A: 40 nM

Q: What about the Ki [19] of the same compound?
A: 230000 nM

Q: Which “effect on weight of uninfected BALB/c mice” value [20] does the source give for `CCc1cn([C@H]2C[C@H](N=[N+]=[N-])[C@@H](CO)O2)c(=O)[nH]c1=O` [CS-85, 3'-azido-2',3'-dideoxy-5-ethyl-uridine, reference compound] here?
A: no significant difference
